From paper PMC10447463, “Data-mining unveils structure–property–activity correlation of viral infectivity enhancing self-assembling peptides” (Nature Communications, 2023)
Where two headings read alike, the source gives them in different places.

Assays:
[1] = test system: HIV-1 infection of TZM-bl cells; assay: HIV-1 infectivity enhancement assay, β-galactosidase luminescence; type: cell-based; conditions: for Log10 Inf. rel. to EF-C: log10 of HIV-1 infection of TZM-bl cells relative to EF-C, Fig S15 source data, asymmetric std dev errors; for Rel-to EFC / n-fold to virus: Fig S8 panels B, D; for Rel-to EFC: infectivity enhancement relative to EF-C
[2] = Zeta-potential measurement; type: physicochemical; conditions: for Zeta-pot. / mV: zeta potential of peptide, Fig S15 source data
How it was run: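 Surface charge of aggregated peptides: 1 mg/mL solutions in PBS (pH 7.4) incubated 1 d at RT, diluted into 1 mM KCl just before reading. Electrophoretic mobility converted to zeta potential by the Smoluchowski formula; triplicate measurements from two separate experiments averaged.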

[3] = Turbidity, derived count rate of scattered light; type: physicochemical; conditions: for Log Count Rate: log of derived count rate; for Count Rate: turbidity
How it was run: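 One-day room-temperature aggregation at 1 mg/mL in PBS (pH 7.4) preceded measurement; samples then went into 1 mM KCl. Triplicates per sample, two independent experiments averaged.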

[4] = Feb2021, 1.3 µM value relative to virus only (0 µM)
[5] = Feb2021, log10 of infectivity relative to EF-C
[6] = Feb2021, n-fold infectivity relative to EF-C
[7] = Feb2021, unrounded values of the 1.3 µM column
[8] = infectivity class (low / medium / high) of each library peptide, main list in c1-c6, same classes repeated in sub-lists of sequences containing the hydrophobicity/charge patterns P+,H0,P+,H0,P0,H0,P0, P+,H0,P0,H0,P0,H0,P0, P+,H0,P0,H0
[9] = infectivity enhancement relative to EF-C (=1), Feb2021 run
[10] = infectivity n-fold relative to virus only, Feb2021 run
[11] = log10 of infectivity relative to EF-C, Feb2021 run
[12] = derived count rate from zeta measurement, mean
[13] = derived count rate of scattered light, mean, std deviation in next column
[14] = infectivity class (low / medium / high) of the peptide in the sequence-pattern analysis, Fig. S22-A4, class limits not given
[15] = Feb2021, Log10 of infectivity relative to EF-C
[16] = Feb2021, n-fold enhancement relative to EF-C
[17] = Feb2021 run, infectivity n-fold relative to virus alone
[18] = Feb2021 run, log10 of infectivity relative to EF-C
[19] = Feb2021 run, n-fold infectivity relative to EF-C
[20] = category 1 or 0 from count rate, key not given
[21] = derived count rate of scattered light, mean, std deviation in separate column
[22] = infectivity n-fold relative to virus alone
[23] = Fig S8 panels A, C, asymmetric log errors
[24] = Fig S8 panels B, D, derived count rate of scattered light

Substance | n-fold to virus (Feb2021) [1, 4] | Log10 of Rel to EFC (Feb2021) [1, 5] | Rel-to EFC (Feb-2021) [1, 6] | Absolute Infectivity / RLU /s (Feb2021) [1, 7] | infectivity [1, 8] | Log10 Inf. rel. to EF-C [1] | Zeta category ( +1 = if > 4 mV;-1 = if < -4 mV; 0 = -4mV to 4 mV) [2] | Zeta Pot. / mV ([2]; mean, Std Zeta in next column) | Zeta Pot. / mV ([2]; mean, Std in separate column) | Zeta-pot. / mV [2] | Zeta Count Rate Category ([3]; category 1/0, no key printed) | Zeta Count Rate / kcps [3, 13] | infectivity [1, 14] | Log10 of Rel to EFC (Feb2021) [1, 15] | Rel-to EFC (Feb-2021) [1, 16] | n-fold to virus (Feb2021) [1, 17] | Log10 of Rel to EFC (Feb2021) [1, 18] | Rel-to EFC (Feb-2021) [1, 19] | Zeta category ( +1 = if > 4 mV;-1 = if < -4 mV; 0 = -4mV to 4 mV) ([2]; category from zeta potential) | Zeta Count Rate Category [3, 20] | also measured
CEIEIQI [AR2/ TM142] | 1.173 | -1.554 | 0.02791 | 633.3 RLU /s | low | -1.554 | -1 (-1 = if < -4 mV) | -26.1 mV | -26.1 mV | -26.1 mV | 0 | 51.97 kcps | – | – | – | – | – | – | – | – | Rel-to EFC (Feb-2021) [1, 9]: 0.02791; n-fold to virus (Feb2021) [1, 10]: 1.173; Log10 of Rel to EFC (Feb2021) [1, 11]: -1.554; Zeta Count Rate / kcps [3, 12]: 51.97 kcps; Zeta Count Rate Category ([3]; key not given): 0
CEIEIQINM [TM144] | 2.736 | -1.186 | 0.06512 | 3593 RLU /s | – | -1.186 | -1 (-1 = if < -4 mV) | -15.3 mV | -15.3 mV | -15.3 mV | 0 | 58.43 kcps | low | – | – | – | – | – | – | – | Rel-to EFC (Feb-2021) [1, 9]: 0.06512; n-fold to virus (Feb2021) [1, 10]: 2.736; Log10 of Rel to EFC (Feb2021) [1, 11]: -1.186; Zeta Count Rate / kcps [3, 12]: 58.43 kcps; Zeta Count Rate Category ([3]; key not given): 0
CKAKAQA [TM155] | 1.325 | – | 0.03153 | 1740 RLU /s | low | -1.501 | -1 (-1 = if < -4 mV) | -8.01 mV | -8.01 mV | -8.01 mV | 1 | 362.7 kcps | low | -1.501 | 0.03153 | 1.325 | -1.501 | 0.03153 | -1 (-1 = if < -4 mV) | 1 | Zeta Count Rate / kcps [3, 21]: 362.7 kcps
CKAKAQANM [BL9] | 1.316 | – | 0.03133 | 430 RLU /s | low | -1.504 | -1 (-1 = if < -4 mV) | -7.773 mV | -7.773 mV | -7.773 mV | 1 | 207.3 kcps | – | -1.504 | 0.03133 | 1.316 | -1.504 | 0.03133 | -1 (-1 = if < -4 mV) | 1 | Zeta Count Rate / kcps [3, 21]: 207.3 kcps
CKAKAQANMWQ [BL8] | 1.837 | – | 0.04371 | 600 RLU /s | low | -1.359 | 0 (0 = -4mV to 4 mV) | 0.7373 mV | 0.7373 mV | 0.7373 mV | 0 | 8.967 kcps | – | -1.359 | 0.04371 | 1.837 | -1.359 | 0.04371 | 0 (0 = -4mV to 4 mV) | 0 | Rel-to EFC [1]: 0.04371; n-fold to virus [1, 22]: 1.837; Log Count Rate [3, 23]: 0.9528; Log Count Rate ([3]; Fig S8 panels B, D): 0.9528; Count Rate [3, 24]: 8.97; Zeta Count Rate / kcps [3, 21]: 8.967 kcps
CKFKFQFNMW [KB14] | 40.34 | -0.01766 | 0.9602 | 21516.66667 RLU /s | high | -0.01766 | 1 (+1 = if > 4 mV) | 18.4 mV | 18.4 mV | 18.4 mV | 1 | 4107 kcps | high | – | – | 40.34 | -0.01766 | 0.9602 | – | – | Zeta Count Rate / kcps [3, 21]: 4107 kcps
CKIKIQINMW [TM86] | 54.4 | – | 1.295 | 7253 RLU /s | high | 0.1122 | 1 (+1 = if > 4 mV) | 18.3 mV | 18.3 mV | 18.3 mV | 1 | 4915 kcps | high | 0.1122 | 1.295 | 54.4 | 0.1122 | 1.295 | 1 (+1 = if > 4 mV) | 1 | Zeta Count Rate / kcps [3, 21]: 4915 kcps
CKWKWQW [KB4] | 10.67 | -0.5951 | 0.254 | 6760 RLU /s | medium | -0.5951 | 1 (+1 = if > 4 mV) | 14.7 mV | – | 14.7 mV | 1 | 7511 kcps | – | – | – | – | – | – | – | – | Rel-to EFC [1]: 0.254; n-fold to virus [1, 22]: 10.67; Log Count Rate [3, 23]: 3.876; Log Count Rate ([3]; Fig S8 panels B, D): 3.876; Count Rate [3, 24]: 7511.27
CKYKYQY [KB2] | 1.711 | -1.39 | 0.04071 | 1083 RLU /s | low | -1.3903 | 0 (0 = -4mV to 4 mV) | 1.49 mV | – | 1.49 mV | 1 | 1061 kcps | – | – | – | – | – | – | – | – | –
CQFQFQF [QBL4] | 14.84 | -0.4519 | 0.3533 | 7570 RLU /s | medium | -0.4519 | -1 (-1 = if < -4 mV) | -24.8 mV | – | -24.8 mV | 1 | 7929 kcps | – | – | – | – | – | – | – | – | Rel-to EFC [1]: 0.3533; n-fold to virus [1, 22]: 14.84; Log Count Rate [3, 23]: 3.899; Log Count Rate ([3]; Fig S8 panels B, D): 3.899; Count Rate [3, 24]: 7928.97
CSISIQINM [TM145] | 8.332 | -0.7027 | 0.1983 | 10943.33333 RLU /s | medium | -0.7027 | -1 (-1 = if < -4 mV) | -19.4 mV | – | -19.4 mV | 1 | 3291 kcps | – | – | – | – | – | – | – | – | –
KAKAKAQA [TG15] | – | – | 0.008711 | – | low | -2.06 | -1 (-1 = if < -4 mV) | -9.01 mV | – | -9.01 mV | – | 76.93 kcps | low | -2.06 | 0.008711 | – | – | – | -1 (-1 = if < -4 mV) | 0 | Absolute Infectivity / RLU /s (Feb2021) ([1]; Feb2021, figures match the 1.3 µM column): 186.7 RLU /s; n-fold to virus (Feb2021) ([1]; Feb2021, infectivity relative to virus only): 0.366; Zeta Pot. / mV [2]: -9.01 mV; Zeta Count Rate Category ([3]; category 1 / 0, no key given): 0; Zeta Count Rate / kcps ([3]; derived count rate of scattered light): 76.93 kcps
